# According to PubChem BioAssay AID2400 (Broad Institute, 2010):
# Values joined by “and” are separate entries in the source; they are usually repeats but may differ in a detail not shown here. Equal values may be shown once. Active and inactive are the calls of the source.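 How the source made its calls: active means fitted EC50 at or below ten times the top tested concentration; inconclusive means flat fit with activity between 30% and 70%, or an unusable fit; inactive means EC50 beyond ten times the top tested concentration.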
# Test system: S. cerevisiae GRE-beta-galactosidase reporter, luminescence, 75 min
# Assay: steroid-induced GRE reporter decrease in yeast – S. cerevisiae, luminescence, Hsp90 inhibitor project, dose response (AID 2400)
row,Compound,EC50
1,NC(=NCCCCCCN=C(N)/N=C(\N)Nc1ccc(Cl)cc1)/N=C(\N)Nc1ccc(Cl)cc1,> 16 µM (inactive) and > 15 µM (inactive)
2,CC1CCC(C(C)C)C(OC(=O)Cn2c(-c3ccc(Br)cc3)[n+](C)c3ccccc32)C1 (configuration not stated),> 16 µM (inactive)
